Our source for the inhibition values is ChEMBL document CHEMBL3132769, “Fragment growing to retain or alter the selectivity of anchored kinase hinge-binding fragments” (Medchemcomm, 2014).

In assay [1] the target is Proto-oncogene tyrosine-protein kinase Src (Homo sapiens) (UniProt P12931). Kind of assay: Inhibition of human full length SRC expressed in baculovirus assessed as substrate phosphorylation using fluorescence-labelled peptides as substrate at 0.1 uM after 90 mins by microfluidic peptide phosphorylation assay.
For assay [2], the target named is T1, Testis-specific serine/threonine-protein kinase 2 (Homo sapiens) (UniProt Q96PF2).
T1 sequence (whole entry): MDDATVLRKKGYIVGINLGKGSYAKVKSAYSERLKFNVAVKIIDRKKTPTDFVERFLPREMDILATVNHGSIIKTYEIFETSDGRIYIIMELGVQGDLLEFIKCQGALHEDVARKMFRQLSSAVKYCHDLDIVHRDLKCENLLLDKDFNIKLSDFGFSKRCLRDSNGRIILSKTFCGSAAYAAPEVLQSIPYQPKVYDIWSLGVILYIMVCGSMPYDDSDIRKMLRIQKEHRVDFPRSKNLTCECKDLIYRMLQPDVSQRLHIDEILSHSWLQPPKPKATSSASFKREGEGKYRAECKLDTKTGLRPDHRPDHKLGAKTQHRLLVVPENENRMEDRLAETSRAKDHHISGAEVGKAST
Kind of assay: Inhibition of human full length TSSK2 expressed in baculovirus assessed as substrate phosphorylation using fluorescence-labelled peptides as substrate at 9 uM after 90 mins by microfluidic peptide phosphorylation assay.

The target in assay [3] is T2, Serine/threonine-protein kinase Sgk1 (Homo sapiens) (UniProt O00141).
T2 sequence (whole entry): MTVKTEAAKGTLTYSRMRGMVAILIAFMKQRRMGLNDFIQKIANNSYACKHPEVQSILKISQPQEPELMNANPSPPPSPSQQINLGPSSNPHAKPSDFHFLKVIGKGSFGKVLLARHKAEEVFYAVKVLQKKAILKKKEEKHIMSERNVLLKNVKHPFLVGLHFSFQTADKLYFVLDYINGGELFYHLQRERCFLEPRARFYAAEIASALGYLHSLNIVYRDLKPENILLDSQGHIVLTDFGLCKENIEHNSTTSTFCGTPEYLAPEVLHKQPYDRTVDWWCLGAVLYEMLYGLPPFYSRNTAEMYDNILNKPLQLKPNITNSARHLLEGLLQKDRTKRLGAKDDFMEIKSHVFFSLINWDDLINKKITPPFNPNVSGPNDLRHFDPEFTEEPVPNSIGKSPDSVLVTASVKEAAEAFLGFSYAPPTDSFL
The assay can be described thus: Inhibition of human truncated SGK1 expressed in baculovirus assessed as substrate phosphorylation using fluorescence-labelled peptides as substrate at 9 uM after 90 mins by microfluidic peptide phosphorylation assay.

The target of assay [4] is Ribosomal protein S6 kinase alpha-5 (Homo sapiens) (UniProt O75582). Kind of assay: Inhibition of human full length MSK1 expressed in baculovirus assessed as substrate phosphorylation using fluorescence-labelled peptides as substrate at 0.06 uM after 90 mins by microfluidic peptide phosphorylation assay.
Assay [5] deals with T3, Inhibitor of nuclear factor kappa-B kinase subunit beta (Homo sapiens) (UniProt O14920).
T3 sequence (whole entry): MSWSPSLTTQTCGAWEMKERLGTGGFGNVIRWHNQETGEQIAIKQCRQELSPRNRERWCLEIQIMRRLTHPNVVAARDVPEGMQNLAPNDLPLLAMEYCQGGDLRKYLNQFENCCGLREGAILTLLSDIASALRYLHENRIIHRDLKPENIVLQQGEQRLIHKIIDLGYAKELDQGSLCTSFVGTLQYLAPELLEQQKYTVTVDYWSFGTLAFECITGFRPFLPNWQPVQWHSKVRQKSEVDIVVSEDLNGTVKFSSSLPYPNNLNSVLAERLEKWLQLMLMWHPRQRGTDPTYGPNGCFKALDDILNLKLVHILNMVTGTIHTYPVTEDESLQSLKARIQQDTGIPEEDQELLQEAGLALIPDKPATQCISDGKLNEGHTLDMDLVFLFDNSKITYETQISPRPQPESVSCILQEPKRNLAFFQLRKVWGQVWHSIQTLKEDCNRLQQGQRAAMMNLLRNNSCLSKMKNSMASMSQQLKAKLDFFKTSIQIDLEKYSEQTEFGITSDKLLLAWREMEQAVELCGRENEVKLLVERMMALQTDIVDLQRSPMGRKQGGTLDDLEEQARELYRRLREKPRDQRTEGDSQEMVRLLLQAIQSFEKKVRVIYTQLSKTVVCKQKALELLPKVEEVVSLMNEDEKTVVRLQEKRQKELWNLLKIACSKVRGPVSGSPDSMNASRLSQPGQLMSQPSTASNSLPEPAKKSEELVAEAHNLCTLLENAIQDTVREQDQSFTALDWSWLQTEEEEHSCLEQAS
The assay can be described thus: Inhibition of human full length IKK beta expressed in baculovirus assessed as substrate phosphorylation using fluorescence-labelled peptides as substrate at 0.06 uM after 90 mins by microfluidic peptide phosphorylation assay.

In assay [6] the target is T4, Serine/threonine-protein kinase DCLK2 (Homo sapiens) (UniProt Q8N568).
T4 sequence (whole entry): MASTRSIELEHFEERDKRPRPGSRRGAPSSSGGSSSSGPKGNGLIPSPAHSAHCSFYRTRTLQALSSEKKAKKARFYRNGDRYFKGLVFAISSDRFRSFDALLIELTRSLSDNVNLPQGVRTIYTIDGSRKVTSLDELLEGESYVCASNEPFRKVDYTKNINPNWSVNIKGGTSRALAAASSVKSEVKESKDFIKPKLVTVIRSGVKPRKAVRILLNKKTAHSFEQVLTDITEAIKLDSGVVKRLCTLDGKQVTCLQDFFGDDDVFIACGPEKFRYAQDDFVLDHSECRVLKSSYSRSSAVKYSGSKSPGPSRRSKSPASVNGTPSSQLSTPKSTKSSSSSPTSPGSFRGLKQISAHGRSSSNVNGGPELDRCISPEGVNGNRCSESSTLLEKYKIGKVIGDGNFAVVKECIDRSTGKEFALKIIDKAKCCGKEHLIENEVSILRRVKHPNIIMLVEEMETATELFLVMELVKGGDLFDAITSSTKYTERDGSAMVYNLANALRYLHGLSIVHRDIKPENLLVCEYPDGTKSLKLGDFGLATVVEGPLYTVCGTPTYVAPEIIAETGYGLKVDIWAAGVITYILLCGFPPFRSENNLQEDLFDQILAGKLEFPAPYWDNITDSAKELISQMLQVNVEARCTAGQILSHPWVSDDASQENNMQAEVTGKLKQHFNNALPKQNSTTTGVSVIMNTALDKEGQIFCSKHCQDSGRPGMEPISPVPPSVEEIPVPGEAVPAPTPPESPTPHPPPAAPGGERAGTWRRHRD
The assay can be described thus: Inhibition of human full length DCAMKL2 expressed in baculovirus assessed as substrate phosphorylation using fluorescence-labelled peptides as substrate at 70 uM after 90 mins by microfluidic peptide phosphorylation assay.

Proto-oncogene tyrosine-protein kinase Src (Homo sapiens), sequence (P12931 2-536 limits assumed): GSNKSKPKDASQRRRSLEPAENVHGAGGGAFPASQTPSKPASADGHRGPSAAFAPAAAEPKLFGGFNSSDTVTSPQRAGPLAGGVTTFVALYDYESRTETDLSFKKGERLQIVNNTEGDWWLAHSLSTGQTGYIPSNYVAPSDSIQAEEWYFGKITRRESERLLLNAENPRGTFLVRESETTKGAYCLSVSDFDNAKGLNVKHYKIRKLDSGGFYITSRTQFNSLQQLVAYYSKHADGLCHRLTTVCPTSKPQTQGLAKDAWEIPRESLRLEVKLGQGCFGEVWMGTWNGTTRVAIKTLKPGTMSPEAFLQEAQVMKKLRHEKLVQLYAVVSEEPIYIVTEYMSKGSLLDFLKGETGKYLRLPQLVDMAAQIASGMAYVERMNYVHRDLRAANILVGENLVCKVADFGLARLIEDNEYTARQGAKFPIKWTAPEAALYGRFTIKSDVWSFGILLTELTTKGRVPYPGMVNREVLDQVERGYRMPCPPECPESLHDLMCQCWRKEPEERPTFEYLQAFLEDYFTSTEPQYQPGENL
Ribosomal protein S6 kinase alpha-5 (Homo sapiens), sequence (O75582 whole entry, looked up): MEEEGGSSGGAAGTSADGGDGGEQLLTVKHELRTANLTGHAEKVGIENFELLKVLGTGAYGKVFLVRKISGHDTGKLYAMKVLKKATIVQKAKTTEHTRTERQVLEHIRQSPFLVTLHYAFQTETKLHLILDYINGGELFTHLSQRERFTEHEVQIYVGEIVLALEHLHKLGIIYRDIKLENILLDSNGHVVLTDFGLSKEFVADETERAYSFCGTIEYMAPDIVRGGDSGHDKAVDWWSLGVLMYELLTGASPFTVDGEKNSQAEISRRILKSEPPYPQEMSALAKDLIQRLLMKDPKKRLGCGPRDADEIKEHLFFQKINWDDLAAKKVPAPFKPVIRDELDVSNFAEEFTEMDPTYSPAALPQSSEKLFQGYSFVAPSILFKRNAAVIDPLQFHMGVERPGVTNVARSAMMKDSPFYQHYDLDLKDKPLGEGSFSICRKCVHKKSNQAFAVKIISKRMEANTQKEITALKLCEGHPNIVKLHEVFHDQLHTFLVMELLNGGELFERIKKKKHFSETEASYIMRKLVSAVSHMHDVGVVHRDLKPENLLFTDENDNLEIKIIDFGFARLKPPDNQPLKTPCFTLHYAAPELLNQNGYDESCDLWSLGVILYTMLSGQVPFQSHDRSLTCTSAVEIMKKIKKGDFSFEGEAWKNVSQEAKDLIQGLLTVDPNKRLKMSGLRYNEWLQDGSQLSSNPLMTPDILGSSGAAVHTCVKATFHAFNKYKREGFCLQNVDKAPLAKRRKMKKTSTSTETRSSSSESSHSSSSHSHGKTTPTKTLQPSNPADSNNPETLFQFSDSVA

In general, inhibition refers to how much of the control response was suppressed. As for `C[C@H](CN(C)C)Oc1nc(Nc2cc3cccc(Cl)c3cn2)cnc1C#N`, the inhibition in assay [1] was 3%.

`NCC1CN(c2ncnc3[nH]c4cnccc4c23)CCO1` (stereo unspecified): the inhibition in assay [2] was 0%; in assay [3], 51%. Regarding `NC1(Cc2ccc(Cl)cc2)CCN(c2ncnc3[nH]ccc23)CC1`, the inhibition in assay [4] stood at 5.5%; in assay [5] it was 2%. Consider `CNCc1ccc(-c2ncnc3[nH]cnc23)cc1`, for which, in assay [6], the inhibition came out at 20.5%.
